ChEMBL document CHEMBL4007427, “Inhibition of the Aldehyde Dehydrogenase 1/2 Family by Psoralen and Coumarin Derivatives” (J Med Chem, 2017)

Legend:
[1] = biological target: T1, Aldehyde dehydrogenase, dimeric NADP-preferring (Homo sapiens) (UniProt P30838); test: Inhibition of full length recombinant human ALDH3A1 expressed in Escherichia coli BL21(DE3) assessed as remaining dehydrogenase activity by measuring NAD(P)H level at 10 uM preincubated for 2 mins followed by addition of propionaldehyde as substrate in presence of NAD+ by spectrophotometric method
T1 sequence (whole entry): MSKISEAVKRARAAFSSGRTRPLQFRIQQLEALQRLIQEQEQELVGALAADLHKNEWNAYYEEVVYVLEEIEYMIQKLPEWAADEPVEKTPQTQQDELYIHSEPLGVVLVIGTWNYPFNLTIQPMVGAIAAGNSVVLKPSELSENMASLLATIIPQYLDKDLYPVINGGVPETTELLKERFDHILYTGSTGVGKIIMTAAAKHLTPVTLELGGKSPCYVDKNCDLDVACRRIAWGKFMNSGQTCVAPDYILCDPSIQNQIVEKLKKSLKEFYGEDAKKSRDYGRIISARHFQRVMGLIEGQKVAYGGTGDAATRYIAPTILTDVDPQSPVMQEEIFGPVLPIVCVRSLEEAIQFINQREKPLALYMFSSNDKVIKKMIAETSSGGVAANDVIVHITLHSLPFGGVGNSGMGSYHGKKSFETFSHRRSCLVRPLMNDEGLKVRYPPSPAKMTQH

[2] = biological target: T2, Aldehyde dehydrogenase 1A1 (Homo sapiens) (UniProt P00352); test: Inhibition of full length recombinant human ALDH1A1 expressed in Escherichia coli BL21(DE3) assessed as remaining dehydrogenase activity by measuring NAD(P)H level at 10 uM preincubated for 2 mins followed by addition of propionaldehyde as substrate in presence of NAD+ by spectrophotometric method
T2 sequence (whole entry): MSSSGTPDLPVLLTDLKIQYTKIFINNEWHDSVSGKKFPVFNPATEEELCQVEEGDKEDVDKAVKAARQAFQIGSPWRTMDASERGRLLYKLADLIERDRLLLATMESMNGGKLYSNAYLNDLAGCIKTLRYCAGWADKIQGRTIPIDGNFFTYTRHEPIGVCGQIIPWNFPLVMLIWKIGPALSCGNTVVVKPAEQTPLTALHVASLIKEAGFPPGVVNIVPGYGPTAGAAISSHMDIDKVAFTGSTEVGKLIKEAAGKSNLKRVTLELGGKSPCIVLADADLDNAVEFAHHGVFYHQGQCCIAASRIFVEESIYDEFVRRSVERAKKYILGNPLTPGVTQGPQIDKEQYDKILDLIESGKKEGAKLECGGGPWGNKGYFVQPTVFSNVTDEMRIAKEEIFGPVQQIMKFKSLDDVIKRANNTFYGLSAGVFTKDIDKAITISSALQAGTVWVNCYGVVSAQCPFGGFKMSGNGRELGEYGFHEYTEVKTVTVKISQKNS

[3] = Lipophilicity, log P of the compound; assay type: physicochemical; conditions: octanol/water
[4] = biological target: T3, Aldehyde dehydrogenase, mitochondrial (Homo sapiens) (UniProt P05091); test: Inhibition of full length recombinant human ALDH2 expressed in Escherichia coli assessed as remaining dehydrogenase activity by measuring NAD(P)H level at 10 uM preincubated for 2 mins followed by addition of propionaldehyde as substrate in presence of NAD+ by spectrophotometric method
T3 sequence (whole entry): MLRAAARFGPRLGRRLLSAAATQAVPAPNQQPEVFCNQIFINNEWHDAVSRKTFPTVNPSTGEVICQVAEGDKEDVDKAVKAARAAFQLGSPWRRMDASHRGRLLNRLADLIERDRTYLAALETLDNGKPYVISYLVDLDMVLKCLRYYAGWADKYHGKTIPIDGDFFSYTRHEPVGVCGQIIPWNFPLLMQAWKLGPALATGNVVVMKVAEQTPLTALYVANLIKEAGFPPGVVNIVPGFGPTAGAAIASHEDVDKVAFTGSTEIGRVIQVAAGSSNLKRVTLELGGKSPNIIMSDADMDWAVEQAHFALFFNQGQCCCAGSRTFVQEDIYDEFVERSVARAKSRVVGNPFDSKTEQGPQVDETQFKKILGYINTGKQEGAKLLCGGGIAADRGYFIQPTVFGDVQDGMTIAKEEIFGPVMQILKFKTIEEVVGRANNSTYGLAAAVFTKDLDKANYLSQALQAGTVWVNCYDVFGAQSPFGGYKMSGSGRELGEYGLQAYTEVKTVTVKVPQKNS

[5] = biological target: T4, Aldehyde dehydrogenase, dimeric NADP-preferring (Homo sapiens, UniProt P30838); test: Inhibition of full length recombinant human ALDH3A1 expressed in Escherichia coli BL21(DE3) assessed as reduction in dehydrogenase activity by measuring NAD(P)H level preincubated for 2 mins followed by addition of benzaldehyde as substrate in presence of NADP+ by spectrophotometric method
T4 sequence (P30838 whole entry): T1 sequence (whole entry)

[6] = biological target: T5, Aldehyde dehydrogenase 1A1 (Homo sapiens, UniProt P00352)
T5 sequence (P00352 whole entry): T2 sequence (whole entry)
Description: Inhibition of full length recombinant human ALDH1A1 expressed in Escherichia coli BL21(DE3) assessed as reduction in dehydrogenase activity by measuring NAD(P)H level preincubated for 2 mins followed by addition of propionaldehyde as substrate in presence of NAD+ by spectrophotometric method

[7] = biological target: T6, Aldehyde dehydrogenase, mitochondrial (Homo sapiens, UniProt P05091)
T6 sequence (P05091 whole entry): T3 sequence (whole entry)
Description: Inhibition of full length recombinant human ALDH2 expressed in Escherichia coli assessed as reduction in dehydrogenase activity by measuring NAD(P)H level preincubated for 2 mins followed by addition of propionaldehyde as substrate in presence of NAD+ by spectrophotometric method

Compound: COc1ccc2c(C)cc(=O)oc2c1 [HYMECROMONE METHYL ETHER]
- Activity [1]: 36.4%
- Activity [2]: 80.2%
- logP [3]: 2.46
- Activity [4]: 94.8%

Compound: Cc1cc(=O)oc2cc(OCC(N)=O)ccc12
- Activity [1]: 67.1%
- Activity [2]: 28.5%
- logP [3]: 1.71
- Activity [4]: 89.5%

Compound: Cc1c(C)c2c(cc(C)c3c(C)coc32)oc1=O
- Activity [1]: 98.1%
- IC50 [5]: Not Active
- Activity [2]: 71.5%
- logP [3]: 3.92
- IC50 [6]: Not Active
- Activity [4]: 46.4%
- IC50 [7]: 150 nM

Compound: CC(=O)C(C)Oc1ccc2c(C)cc(=O)oc2c1 (stereo not drawn)
- Activity [1]: 101%
- Activity [2]: 68.7%
- logP [3]: 1.72
- Activity [4]: 94.4%

Compound: Cc1c(C)c2cc3c4c(oc3cc2oc1=O)CCCC4
- Activity [1]: 96.1%
- Activity [2]: 64.3%
- logP [3]: 4.48
- Activity [4]: 61.3%

Compound: Cc1cc(=O)oc2cc(OC(C)C(=O)O)ccc12 (stereo not drawn)
- Activity [1]: 93.9%
- Activity [2]: 97.5%
- logP [3]: 1.63
- Activity [4]: 99.3%

Compound: Cc1c(C)c2cc3c(=O)ccoc3c(C)c2oc1=O
- Activity [1]: 79.2%
- Activity [2]: 67.4%
- logP [3]: 2.1
- Activity [4]: 80.2%

Compound: Cc1oc2cc3oc(=O)cc(Cc4ccccc4)c3cc2c1C
- Activity [1]: 81.6%
- Activity [2]: 57%
- logP [3]: 4.8
- Activity [4]: 73.7%

Compound: CC(C)=CCOc1ccc2c(C)cc(=O)oc2c1
- Activity [1]: 23.7%
- Activity [2]: 37.3%
- logP [3]: 3.94
- Activity [4]: 93.3%

Compound: Cc1coc2cc3oc(=O)c(Cc4ccccc4)c(C)c3cc12
- Activity [1]: 90.3%
- Activity [2]: 58.5%
- logP [3]: 4.98
- Activity [4]: 83.6%

Compound: C=CCOc1ccc2c(C)cc(=O)oc2c1
- Activity [1]: 9.46%
- Activity [2]: 35.5%
- logP [3]: 3.01
- Activity [4]: 94.6%

Compound: CC(=O)COc1ccc2c(C)cc(=O)oc2c1
- Activity [1]: 64.1%
- Activity [2]: 52.2%
- logP [3]: 1.37
- Activity [4]: 99.1%

Compound: CC(=O)C(C)Oc1ccc2c(c1)oc(=O)c1ccccc12 (stereo not drawn)
- Activity [1]: 103%
- Activity [2]: 58.7%
- logP [3]: 2.64
- Activity [4]: 64.4%

Compound: Cc1cc(=O)oc2cc(OCC(=O)c3ccccc3)ccc12
- Activity [1]: 67.1%
- Activity [2]: 29%
- logP [3]: 3.19
- Activity [4]: 97.8%

Compound: Cc1c(C)c2cc3c(C(C)(C)C)coc3cc2oc1=O
- Activity [1]: 87%
- Activity [2]: 94.5%
- logP [3]: 3.94
- Activity [4]: 69.7%

Compound: CC(=O)C(C)Oc1ccc2ccc(=O)oc2c1 (stereo not drawn)
- Activity [1]: 106%
- Activity [2]: 91.4%
- logP [3]: 1.4
- Activity [4]: 93.3%

Compound: Cc1c(CCC(=O)O)c(=O)oc2cc(O)ccc12
- Activity [1]: 105%
- Activity [2]: 96.6%
- logP [3]: 1.82
- Activity [4]: 101%

Compound: Cc1cc(=O)oc2cc(OCC(=O)Nc3ccccc3)ccc12
- Activity [1]: 95.5%
- Activity [2]: 49.6%
- logP [3]: 2.85
- Activity [4]: 95%

Compound: Cc1oc2c(C)c3oc(=O)c(C)c(C)c3cc2c1C
- Activity [1]: 102%
- Activity [2]: 78.4%
- logP [3]: 4.36
- Activity [4]: 87.2%

Compound: Cc1oc2cc3oc(=O)c(CCC(=O)NCc4ccccc4)c(C)c3cc2c1C
- Activity [1]: 68.3%
- Activity [2]: 93.6%
- logP [3]: 4.52
- Activity [4]: 69.8%

Compound: Cc1cc2oc(=O)cc(C)c2cc1NC(=O)C(C)C
- Activity [1]: 105%
- Activity [2]: 59.8%
- logP [3]: 2.05
- Activity [4]: 96.3%

Compound: Cc1oc2cc3oc(=O)c4ccccc4c3cc2c1C
- Activity [1]: 93.4%
- IC50 [5]: Not Active
- Activity [2]: 82.4%
- logP [3]: 3.89
- IC50 [6]: Not Active
- Activity [4]: 42.2%
- IC50 [7]: 150 nM

Compound: Cc1c(C)c2cc3c(-c4ccccc4)coc3cc2oc1=O
- Activity [1]: 88.9%
- Activity [2]: 87.4%
- logP [3]: 4.8
- Activity [4]: 92.8%
